In brackets after ≈: the same amount, converted by molar mass.
What was measured:
[1] = tested on: S.epidermidis ATCC 14990; experiment: MIC by microbroth dilution method; assay type: cell-based
[2] = tested on: S.aureus DB00026; experiment: MIC by microbroth dilution method; assay type: cell-based
[3] = tested on: S.epidermis St 358; experiment: MIC by microbroth dilution method; assay type: cell-based, S. epidermidis
[4] = tested on: E.faecium 134 VRE; experiment: MIC by microbroth dilution method; assay type: cell-based
[5] = tested on: MRSA ATCC BAA 39; experiment: MIC by microbroth dilution method; assay type: cell-based, S. aureus
[6] = tested on: MRSE ATCC 35984; experiment: MIC by microbroth dilution method; assay type: cell-based, S. epidermidis
[7] = tested on: S.aureus ATCC 13709 Smith; experiment: MIC by microbroth dilution method; assay type: cell-based
[8] = tested on: S.aureus2 (PVL + ve); assay type: cell-based, S. aureus
[9] = tested on: S.aureus ATCC 700699 Mu50; experiment: MIC by microbroth dilution method; assay type: cell-based
[10] = tested on: S.aureus ATCC Newman 25904; experiment: MIC by microbroth dilution method; assay type: cell-based
[11] = tested on: MRSA 562; experiment: MIC by microbroth dilution method; assay type: cell-based, S. aureus
[12] = tested on: MRSA 252 BAA 1720; experiment: MIC by microbroth dilution method; assay type: cell-based, S. aureus
[13] = tested on: E.faecium ATCC 35667; experiment: MIC by microbroth dilution method; assay type: cell-based
[14] = tested on: MRSA 0-2657; experiment: MIC by microbroth dilution method; assay type: cell-based, S. aureus
[15] = tested on: E.faecalis SP 346 VRE; experiment: MIC by microbroth dilution method; assay type: cell-based
[16] = tested on: S.aureus ATCC 49775 PVL + ve; assay type: cell-based
[17] = tested on: E.faecium 6A VRE; experiment: MIC by microbroth dilution method; assay type: cell-based
[18] = tested on: E.coli 7632; experiment: MIC by microbroth dilution method; assay type: cell-based
[19] = tested on: S.aureus 13709 LNZ mutant; assay type: cell-based
[20] = tested on: S.epidermidis ATCC 12228; experiment: MIC by microbroth dilution method; assay type: cell-based
[21] = tested on: MRSA DB 00026; experiment: MIC by microbroth dilution method; assay type: cell-based, S. aureus
[22] = tested on: E.faecium ATCC 19434; experiment: MIC by microbroth dilution method; assay type: cell-based
[23] = tested on: MRSA ATCC 43300; experiment: MIC by microbroth dilution method; assay type: cell-based, S. aureus
[24] = tested on: E.faecium ATCC 49224; experiment: MIC by microbroth dilution method; assay type: cell-based
[25] = tested on: S.aureus ATCC 29213; experiment: MIC by microbroth dilution method; assay type: cell-based
[26] = tested on: Mycobacterium tuberculosis H37Rv; experiment: Anti-TB activity, colorimetric resazurin microtiter assay; assay type: cell-based; conditions: Mycobacterium tuberculosis, H37RV, read-out: MIC, Minimum Inhibitory Concentration (90%)
[27] = tested on: E.faecalis ATCC 19433; experiment: MIC by microbroth dilution method; assay type: cell-based
[28] = tested on: E.faecium ATCC 3567; experiment: MIC by microbroth dilution method; assay type: cell-based
[29] = tested on: MRSE ATCC 35983; experiment: MIC by microbroth dilution method; assay type: cell-based, S. epidermidis
[30] = tested on: E.faecalis ATCC 51299(VRE&HLAR); experiment: MIC by microbroth dilution method; assay type: cell-based
[31] = tested on: E.faecium 06076 VRE; experiment: MIC by microbroth dilution method; assay type: cell-based
[32] = tested on: E.faecalis ATCC 29212; experiment: MIC by microbroth dilution method; assay type: cell-based

C[Si]1(C)CCN(c2c(F)cc(N3C[C@H](CN)OC3=O)cc2F)CC1 [NDS-10054, (S)-5-(aminomethyl)-3-(4-(4,4-dimethyl-1,4-azasilinan-1-yl)-3,5-difluorophenyl)oxazolidin-2-one]
MIC [1]: 16 µg/mL (≈ 45 µM) | MIC [2]: 16 µg/mL (≈ 45 µM) | MIC [3]: 16 µg/mL (≈ 45 µM) | MIC [4]: 16 µg/mL (≈ 45 µM) | MIC [5]: 16 µg/mL (≈ 45 µM) | MIC [6]: 16 µg/mL (≈ 45 µM) | MIC [7]: 16 µg/mL (≈ 45 µM) | MIC [8]: 16 µg/mL (≈ 45 µM) | MIC [9]: 16 µg/mL (≈ 45 µM) | MIC [10]: 16 µg/mL (≈ 45 µM) | MIC [11]: 16 µg/mL (≈ 45 µM) | MIC [12]: 16 µg/mL (≈ 45 µM) | MIC [13]: 8 µg/mL (≈ 22.5 µM) | MIC [14]: 16 µg/mL (≈ 45 µM) | MIC [15]: 16 µg/mL (≈ 45 µM) | MIC [16]: 16 µg/mL (≈ 45 µM) | MIC [17]: 8 µg/mL (≈ 22.5 µM) | MIC [18]: > 32 µg/mL | MIC [19]: 32 µg/mL (≈ 90 µM) | MIC [20]: 32 µg/mL (≈ 90 µM) | MIC [21]: 16 µg/mL (≈ 45 µM) | MIC [22]: 16 µg/mL (≈ 45 µM) | MIC [23]: 16 µg/mL (≈ 45 µM) | MIC [24]: 16 µg/mL (≈ 45 µM) | MIC [25]: 16 µg/mL (≈ 45 µM) | MIC [26]: 25 µg/mL (≈ 70.3 µM) | MIC [27]: 16 µg/mL (≈ 45 µM) | MIC [28]: 8 µg/mL (≈ 22.5 µM) | MIC [29]: 32 µg/mL (≈ 90 µM) | MIC [30]: 16 µg/mL (≈ 45 µM) | MIC [31]: 16 µg/mL (≈ 45 µM) | MIC [32]: 16 µg/mL (≈ 45 µM)

CC(=O)NC[C@H]1CN(c2cc(F)c(N3CC[Si](C)(c4ccccc4)CC3)c(F)c2)C(=O)O1 [NDS-10068, (S)—N-((3-(3,5-difluoro-4-(4-methyl-4-phenyl-1,4-azasilinan-1-yl)phenyl)-2-oxooxazolidin-5-yl)methyl)acetamide]
MIC [26]: > 100 µg/mL

CCC(=O)NC[C@H]1CN(c2cc(F)c(N3CC[Si](C)(c4ccccc4)CC3)c(F)c2)C(=O)O1 [NDS-10069, (S)—N-((3-(3,5-difluoro-4-(4-methyl-4-phenyl-1,4-azasilinan-1-yl)phenyl)-2-oxooxazolidin-5-yl)methyl)propionamide]
MIC [26]: 50 µg/mL (≈ 106 µM)

CC(C)(C)OC(=O)NC[C@H]1CN(c2cc(F)c(N3CC[Si](C)(C)CC3)c(F)c2)C(=O)O1 [NDS-10031, (S)-tert-butyl((3-(4-(4,4-dimethyl-1,4-azasilinan-1-yl)-3,5-difluorophenyl)-2-oxooxazolidin-5-yl)methyl)carbamate]
MIC [1]: > 16 µg/mL | MIC [3]: > 16 µg/mL | MIC [4]: > 16 µg/mL | MIC [5]: > 16 µg/mL | MIC [6]: > 16 µg/mL | MIC [7]: > 16 µg/mL | MIC [9]: > 16 µg/mL | MIC [11]: > 16 µg/mL | MIC [14]: > 16 µg/mL | MIC [15]: > 16 µg/mL | MIC [16]: > 16 µg/mL | MIC [17]: > 16 µg/mL | MIC [18]: > 32 µg/mL | MIC [19]: > 16 µg/mL | MIC [20]: > 16 µg/mL | MIC [21]: > 16 µg/mL | MIC [22]: > 16 µg/mL | MIC [25]: > 16 µg/mL | MIC [27]: > 16 µg/mL | MIC [28]: > 16 µg/mL | MIC [29]: > 16 µg/mL | MIC [30]: > 16 µg/mL | MIC [31]: > 16 µg/mL | MIC [32]: > 16 µg/mL

COC(=S)NC[C@H]1CN(c2cc(F)c(N3CC[Si](C)(C)CC3)c(F)c2)C(=O)O1 [NDS-10055, (S)—O-methyl(3-(4-(4,4-dimethyl-1,4-azasilinan-1-yl)-3,5-difluorophenyl)-2-oxooxazolidin-5-yl)methylcarbamothioate]
MIC [26]: > 100 µg/mL

From patent US9233989B2, “Sila analogs of oxazolidinone derivatives and synthesis thereof” (Council of Scientific & Industrial Research, priority 2011, dated 2016)
